Measurements from article PMC8034185, “The rumen eukaryotome is a source of novel antimicrobial peptides with therapeutic potential” (BMC Microbiology, 2021).
Values after ≈ are worked out from the molar mass of the structure shown.

Assays:
[1] = tested on: S. aureus ATCC 33591; experiment: microbe, parasite or virus in culture; format: cell-based, Staphylococcus aureus; settings: Staphylococcus aureus, ATCC33591, 18 h, read-out: Minimum Inhibitory Concentration, S. aureus ATCC 33591
Experimental: (§1) MICs against a range of clinically important Gram-positive and Gram-negative bacteria strains including methicillin-sensitive Staphylococcus aureus (MSSA) RN4220 epidemic methicillin-resistant S. aureus-15 (EMRSA-15), methicillin-resistant S. aureus USA300 (MRSA USA300), Bacillus cereus, Enterococcus faecalis JH2–2, Escherichia coli K12, Salmonella enterica serovar Typhimurium SL1344, P. aeruginosa PAO1, and hospital isolates of Acinetobacter baummannii were determined in quadruplicate by a modified microdilution broth method [64] with a final bacterial inoculum concentration of 5 × 10^5 CFU/mL utilised as the test organisms. Cation-adjusted Mueller Hinton (MH) broth was innoclated overnight with a single colony of the tested microorganisms, subsequently grown for 16–24 h with shaking at 225 rpm, and further diluted in the same broth to a final concentration of 5 × 10^5 CFU/mL. The bacterial suspension was added to sterile U-bottomed 96-well plates, and the peptides and control antibiotics to be tested were dissolved in sterile distilled water and serially diluted in the wells. The MICs were recorded as the lowest peptide concentration that inhibited growth after incubation for 18 h [65].

[2] = tested on: S. aureus USA300; experiment: microbe, parasite or virus in culture; format: cell-based, Staphylococcus aureus; settings: Staphylococcus aureus, USA300, 18 h, read-out: Minimum Inhibitory Concentration, S. aureus USA300
Experimental: as §1

[3] = tested on: EMRSA-15 cells; experiment: Time-kill assay; format: cell-based, Staphylococcus aureus; settings: for Time dependent kill, Mean Log CFU/ml / Time dependent kill, CFU/ml / Time dependent kill, Log CFU/ml: 3x MIC (24 ug/ml); for Time dependent kill, Mean Log CFU/ml: mean of 3 independent replicates
Experimental: Time-dependent kill assays were adapted from standard procedures and were all performed as previously using exponential-phase cultures of EMRA-15 MRSA and USA300 grown in MHB (1 × 10^6 CFU/mL). […] Experiments were performed in triplicates, and CFU/mL was calculated at different time points after overnight incubation of inoculated agar plates (MHA) at 37 °C. Kill curves were plotted with CFU/mL against time (h).

[4] = tested on: Ent. faecalis (JH2–2); experiment: microbe, parasite or virus in culture; format: cell-based, Enterococcus faecalis; settings: Enterococcus faecalis, 18 h, read-out: Minimum Inhibitory Concentration, Ent. faecalis
Experimental: as §1

[5] = tested on: S. aureus MSSA (RN4220); experiment: microbe, parasite or virus in culture; format: cell-based, Staphylococcus aureus; settings: Staphylococcus aureus, MSSA, 18 h, read-out: Minimum Inhibitory Concentration, S. aureus MSSA
Experimental: as §1

[6] = tested on: S. aureus EMRSA-15; experiment: microbe, parasite or virus in culture; format: cell-based, Staphylococcus aureus; settings: Staphylococcus aureus, EMRSA15, 18 h, read-out: Minimum Inhibitory Concentration, S. aureus EMRSA-15
Experimental: as §1

[7] = tested on: B. cereus; experiment: microbe, parasite or virus in culture; format: cell-based, Bacillus cereus; settings: Bacillus cereus, 18 h, read-out: Minimum Inhibitory Concentration, B. cereus
Experimental: as §1

[8] = tested on: P. aeruginosa H174; experiment: microbe, parasite or virus in culture; format: cell-based, Pseudomonas aeruginosa; settings: Pseudomonas aeruginosa, H174; modified broth microdilution, cation-adjusted Mueller Hinton broth, inoculum 5 × 10^5 CFU/mL, 18 h, quadruplicate; highest concentration tested 512 μg/mL; read-out: Minimum Inhibitory Concentration, P. aeruginosa H174
Experimental: as §1

[9] = tested on: A. baumannii S15785 OXA-23/0XA-50; experiment: microbe, parasite or virus in culture; format: cell-based, Acinetobacter baumannii; settings: Acinetobacter baumannii; modified broth microdilution, cation-adjusted Mueller Hinton broth, inoculum 5 × 10^5 CFU/mL, 18 h, quadruplicate; highest concentration tested 512 μg/mL; read-out: Minimum Inhibitory Concentration, A. baumannii S15785 OXA-23/0XA-50
Experimental: as §1

[10] = tested on: A. baumannii DSMZ 30007; experiment: microbe, parasite or virus in culture; format: cell-based, Acinetobacter baumannii; settings: Acinetobacter baumannii, DSMZ30007; modified broth microdilution, cation-adjusted Mueller Hinton broth, inoculum 5 × 10^5 CFU/mL, 18 h, quadruplicate; highest concentration tested 512 μg/mL; read-out: Minimum Inhibitory Concentration, A. baumannii DSMZ 30007
Experimental: as §1

[11] = tested on: A. baumannii IMI/MER-R; experiment: microbe, parasite or virus in culture; format: cell-based, Acinetobacter baumannii; settings: Acinetobacter baumannii; imipenem/meropenem resistant; modified broth microdilution, cation-adjusted Mueller Hinton broth, inoculum 5 × 10^5 CFU/mL, 18 h, quadruplicate; highest concentration tested 512 μg/mL; read-out: Minimum Inhibitory Concentration, A. baumannii IMI/MER-R
Experimental: as §1

[12] = tested on: Sal. Tyhimurium (SL1344); experiment: microbe, parasite or virus in culture; format: cell-based, Salmonella enterica serovar Typhimurium; settings: Salmonella enterica; modified broth microdilution, cation-adjusted Mueller Hinton broth, inoculum 5 × 10^5 CFU/mL, 18 h, quadruplicate; highest concentration tested 512 μg/mL; read-out: Minimum Inhibitory Concentration, Sal. Tyhimurium
Experimental: as §1

[13] = tested on: P. aeruginosa PAO1; experiment: microbe, parasite or virus in culture; format: cell-based, Pseudomonas aeruginosa; settings: Pseudomonas aeruginosa, PAO1; modified broth microdilution, cation-adjusted Mueller Hinton broth, inoculum 5 × 10^5 CFU/mL, 18 h, quadruplicate; highest concentration tested 512 μg/mL; read-out: Minimum Inhibitory Concentration, P. aeruginosa PAO1
Experimental: as §1

[14] = tested on: A. baumannii S27379 Sen; experiment: microbe, parasite or virus in culture; format: cell-based, Acinetobacter baumannii; settings: Acinetobacter baumannii, S27379SEN; sensitive hospital isolate; modified broth microdilution, cation-adjusted Mueller Hinton broth, inoculum 5 × 10^5 CFU/mL, 18 h, quadruplicate; highest concentration tested 512 μg/mL; read-out: Minimum Inhibitory Concentration, A. baumannii S27379 Sen
Experimental: as §1

[15] = tested on: E. coli K12; experiment: microbe, parasite or virus in culture; format: cell-based, Escherichia coli; settings: Escherichia coli, K12; modified broth microdilution, cation-adjusted Mueller Hinton broth, inoculum 5 × 10^5 CFU/mL, 18 h, quadruplicate; highest concentration tested 512 μg/mL; read-out: Minimum Inhibitory Concentration, E. coli K12
Experimental: as §1

CN[C@H](CC(C)C)C(=O)N[C@H]1C(=O)N[C@@H](CC(N)=O)C(=O)N[C@H]2C(=O)N[C@H]3C(=O)N[C@H](C(=O)N[C@H](C(=O)O)c4cc(O)cc(O)c4-c4cc3ccc4O)[C@H](O)c3ccc(c(Cl)c3)Oc3cc2cc(c3O[C@@H]2O[C@H](CO)[C@@H](O)[C@H](O)[C@H]2O[C@H]2C[C@](C)(N)[C@H](O)[C@H](C)O2)Oc2ccc(cc2Cl)[C@H]1O [Vancomycin]
MIC [1]: 2 µg/mL (≈ 1.38 µM) | MIC [2]: 2 µg/mL (≈ 1.38 µM) | Time dependent kill, Mean Log CFU/ml ([3]; 0 min): 6.839 Log CFU/ml | Time dependent kill, Mean Log CFU/ml ([3]; 10 min): 6.579 Log CFU/ml | Time dependent kill, Mean Log CFU/ml ([3]; 30 min): 6.503 Log CFU/ml | Time dependent kill, Mean Log CFU/ml ([3]; 60 min): 6.404 Log CFU/ml | Time dependent kill, Mean Log CFU/ml ([3]; 120 min): 5.884 Log CFU/ml | Time dependent kill, Mean Log CFU/ml ([3]; 240 min): 5.168 Log CFU/ml | Time dependent kill, Mean Log CFU/ml ([3]; 360 min): 4.661 Log CFU/ml | Time dependent kill, Mean Log CFU/ml ([3]; 1440 min): 0 Log CFU/ml | Time dependent kill, CFU/ml ([3]; T0 min, Exp1): 7200000 CFU/ml | Time dependent kill, CFU/ml ([3]; T0 min, Exp2): 7600000 CFU/ml | Time dependent kill, CFU/ml ([3]; T0 min, Exp3): 6000000 CFU/ml | Time dependent kill, Log CFU/ml ([3]; T0 min, Exp3): 6.778 Log CFU/ml | Time dependent kill, CFU/ml ([3]; T10 min, Exp1): 3800000 CFU/ml | Time dependent kill, Log CFU/ml ([3]; T10 min, Exp1): 6.58 Log CFU/ml | Time dependent kill, CFU/ml ([3]; T10 min, Exp2): 3600000 CFU/ml | Time dependent kill, Log CFU/ml ([3]; T10 min, Exp2): 6.5563 Log CFU/ml | Time dependent kill, CFU/ml ([3]; T10 min, Exp3): 4000000 CFU/ml | Time dependent kill, Log CFU/ml ([3]; T10 min, Exp3): 6.602 Log CFU/ml | Time dependent kill, CFU/ml ([3]; T30 min, Exp1): 2800000 CFU/ml | Time dependent kill, Log CFU/ml ([3]; T30 min, Exp1): 6.447 Log CFU/ml | Time dependent kill, CFU/ml ([3]; T30 min, Exp2): 4800000 CFU/ml | Time dependent kill, Log CFU/ml ([3]; T30 min, Exp2): 6.681 Log CFU/ml | Time dependent kill, CFU/ml ([3]; T30 min, Exp3): 2400000 CFU/ml | Time dependent kill, Log CFU/ml ([3]; T30 min, Exp3): 6.38 Log CFU/ml | Time dependent kill, CFU/ml ([3]; T60 min, Exp1): 2000000 CFU/ml | Time dependent kill, Log CFU/ml ([3]; T60 min, Exp1): 6.301 Log CFU/ml | Time dependent kill, CFU/ml ([3]; T60 min, Exp2): 3400000 CFU/ml | Time dependent kill, Log CFU/ml ([3]; T60 min, Exp2): 6.531 Log CFU/ml | Time dependent kill, CFU/ml ([3]; T60 min, Exp3): 2400000 CFU/ml | Time dependent kill, Log CFU/ml ([3]; T60 min, Exp3): 6.38 Log CFU/ml | Time dependent kill, CFU/ml ([3]; T120 min, Exp1): 800000 CFU/ml | Time dependent kill, Log CFU/ml ([3]; T120 min, Exp1): 5.903 Log CFU/ml | Time dependent kill, CFU/ml ([3]; T120 min, Exp2): 700000 CFU/ml | Time dependent kill, Log CFU/ml ([3]; T120 min, Exp2): 5.8451 Log CFU/ml | Time dependent kill, CFU/ml ([3]; T120 min, Exp3): 800000 CFU/ml | Time dependent kill, Log CFU/ml ([3]; T120 min, Exp3): 5.903 Log CFU/ml | Time dependent kill, CFU/ml ([3]; T240 min, Exp1): 80000 CFU/ml | Time dependent kill, Log CFU/ml ([3]; T240 min, Exp1): 4.9031 Log CFU/ml | Time dependent kill, CFU/ml ([3]; T240 min, Exp2): 100000 CFU/ml | Time dependent kill, Log CFU/ml ([3]; T240 min, Exp2): 5 Log CFU/ml | Time dependent kill, CFU/ml ([3]; T240 min, Exp3): 400000 CFU/ml | Time dependent kill, Log CFU/ml ([3]; T240 min, Exp3): 5.602 Log CFU/ml | Time dependent kill, CFU/ml ([3]; T360 min, Exp1): 60000 CFU/ml | Time dependent kill, Log CFU/ml ([3]; T360 min, Exp1): 4.778 Log CFU/ml | Time dependent kill, CFU/ml ([3]; T360 min, Exp2): 40000 CFU/ml | Time dependent kill, Log CFU/ml ([3]; T360 min, Exp2): 4.602 Log CFU/ml | Time dependent kill, CFU/ml ([3]; T360 min, Exp3): 40000 CFU/ml | Time dependent kill, Log CFU/ml ([3]; T360 min, Exp3): 4.602 Log CFU/ml | Time dependent kill, CFU/ml ([3]; T1440 min, Exp1): 0 CFU/ml | Time dependent kill, Log CFU/ml ([3]; T1440 min, Exp1): 0 Log CFU/ml | Time dependent kill, CFU/ml ([3]; T1440 min, Exp2): 0 CFU/ml | Time dependent kill, Log CFU/ml ([3]; T1440 min, Exp2): 0 Log CFU/ml | Time dependent kill, CFU/ml ([3]; T1440 min, Exp3): 0 CFU/ml | Time dependent kill, Log CFU/ml ([3]; T1440 min, Exp3): 0 Log CFU/ml | reduction in viable cells, time-kill ([3]; EMRSA-15, 3× MIC, after 6 h): ≥ 10^3 CFU/mL | MIC [4]: 2 µg/mL (≈ 1.38 µM) | MIC [5]: 2 µg/mL (≈ 1.38 µM) | MIC [6]: 2 µg/mL (≈ 1.38 µM) | MIC [7]: 2 µg/mL (≈ 1.38 µM)

C[C@H]1COc2c(N3CCN(C)CC3)c(F)cc3c(=O)c(C(=O)O)cn1c23 [Levofloxacin]
MIC [8]: 0.5 µg/mL (≈ 1.38 µM) | MIC [9]: > 512 µg/mL | MIC [10]: 0.25 µg/mL (≈ 0.692 µM) | MIC [11]: 256 µg/mL (≈ 708 µM) | MIC [12]: 0.12 µg/mL (≈ 0.332 µM) | MIC [13]: 0.06 µg/mL (≈ 0.166 µM) | MIC [14]: 0.12 µg/mL (≈ 0.332 µM) | MIC [15]: 0.03 µg/mL (≈ 0.083 µM)
